Experiments:
Assay type in all cases: in vivo, rat
[1] = test system: rats with nonalcoholic steatohepatitis induced by a high-fat diet and CCl4; assay: Serum biochemical indices, high-fat diet and CCl4 model; conditions: end of tenth week of administration, positive control group; for HOMA-IR: FPG x FINS/22.5
Method: (§1) Starting from the seventh week, they received subcutaneous injections of a 30% CCl4 olive oil solution at a dosage of 0.2 ml/100 g behind their back twice per week for a total of four times. Once the model was successfully replicated, the corresponding drugs were administered orally (10 ml/kg) in each treatment group, and both the normal control group and the model group received equal volumes of a 0.5% CMC-Na solution once daily for ten consecutive weeks. Throughout the experimental period, the rats were provided with ad libitum access to food and water, while the animal chamber was maintained under controlled conditions of quietness, natural lighting, a temperature of 25±0.5° C., and a humidity level of 55±5%. The rats' body weights were measured once per week and recorded.
(§2) At the end of the tenth week of administration, all rats underwent a 16-hour fasting period following their final administration and were intraperitoneally injected with a 20% ulinastatin solution (10 ml/kg) for anesthesia. Subsequently, blood samples were collected from the abdominal aorta and allowed to stand for one hour, and then centrifuged at 4° C. for fifteen minutes at a speed of 3000 r/min. Finally, the upper serum was stored at −80° C. Following the instructions provided with the biochemical index detection kit, levels of HDL-C, LDL-C, NEFA, AST, ALT, UA, TC, TG, PCIII, IV-C LN and HA in rat serum were determined.
According to the kit instructions, the concentration of fasting plasma glucose (FPG) in serum was determined using colorimetry, while the concentration of fasting insulin (FINS) in serum was measured through radioimmunoassay.

[2] = Body weight of rats, high-fat diet + CCl4 non-alcoholic steatohepatitis model; conditions: positive control group, in g (unit assumed)
Method: as §1, with “The normal control group were fed a standard diet while the other groups were exclusively fed a high-fat diet consisting of 88% basal diet +10% lard +2% cholesterol for the initial six weeks. Starting” for “Starting”
The weight changes of rats in each group were compared by conducting weekly weigh-ins after the experiment.

[3] = test system: rats with nonalcoholic steatohepatitis induced by a high-fat diet and CCl4; assay: Liver indices, non-alcoholic steatohepatitis model induced by high-fat diet and CCl4; conditions: positive control group
Method: as §1, with “The normal control group were fed a standard diet while the other groups were exclusively fed a high-fat diet consisting of 88% basal diet +10% lard +2% cholesterol for the initial six weeks. Starting” for “Starting”
After blood sampling from the abdominal aorta of rats, the liver tissue was isolated, rinsed with normal saline solution, dried using filter paper, weighed accurately, and subsequently calculated the Liver indices: Liver indices=wet liver weight/body weight×100%.

[4] = Body weight of rats, high-fat diet non-alcoholic steatohepatitis model; conditions: positive control group, in g (unit assumed)
Method: (§3) The normal control group was fed a standard diet for twelve weeks while the other groups were fed a high-fat diet consisting of 88% basal diet+10% lard+2% cholesterol for twelve weeks. After establishing the model, the drug groups received their respective treatments at a dosage of 10 ml/kg while the normal and model groups received an equal volume of 0.5% CMC-Na solution. The rats were provided with ad libitum access to water and food, while the animal chamber was maintained under controlled conditions of quietness, natural lighting, a temperature of 25±0.5° C., and a humidity level of 55±5%. The rats' body weights were measured once per week and recorded.
The rats were weighed weekly to monitor the fluctuations in body weight within each experimental group.

[5] = test system: rats with nonalcoholic steatohepatitis induced by a high-fat diet and CCl4; assay: Four indices of serum hepatic fibrosis, high-fat diet and CCl4 model; conditions: positive control group
Method: as §1, §2

[6] = test system: rats with non-alcoholic steatohepatitis induced by high-fat diet; assay: Liver indices, non-alcoholic steatohepatitis model induced by high-fat diet; conditions: for Liver Indices: high-fat diet model, positive control group
Method: as §3
(3) Liver indices was determined by dividing the wet weight of the liver by the body weight of rats and multiplying by 100%, after liver tissue was isolated, washed with normal saline, dried using filter paper, and weighed following blood sampling from the abdominal aorta. (4) HE staining and oil red staining were performed on liver tissue samples obtained from the abdominal aorta of rats. The tissue was fixed in 10% neutral formalin, followed by embedding, slicing, dewaxing, staining, transparency treatment, and sealing using routine procedures. Microscopic examination was conducted to observe the pathological changes in rat liver tissues across different groups. Additionally, the NASH-CRN scoring system was employed to assess NAS scores. (5) Detection of Proteins Associated with Non-Alcoholic Steatohepatitis

[7] = test system: rats with nonalcoholic steatohepatitis induced by a high-fat diet and CCl4; assay: Liver histopathology (HE, oil red, Masson staining), high-fat diet and CCl4 model; conditions: positive control groups and NR218 high-, medium-, low-dose groups
Method: as §1, with “The normal control group were fed a standard diet while the other groups were exclusively fed a high-fat diet consisting of 88% basal diet +10% lard +2% cholesterol for the initial six weeks. Starting” for “Starting”
After collecting blood samples from the abdominal aorta of rats, the liver tissue was isolated and fixed in a 10% neutral formalin solution. Following standard procedures for embedding, sectioning, dewaxing, staining, clearing, and sealing, the liver tissues were subjected to HE (hematoxylin-eosin), Masson's trichrome, and oil red staining techniques respectively. […]

## CC[C@H]1[C@@H](O)[C@@H]2[C@H](CC[C@]3(C)[C@@H]([C@H](C)CCC(=O)O)CC[C@@H]23)[C@@]2(C)CC[C@@H](O)C[C@@H]12 [Ocaliva, Obercholic acid]
[1]
  HOMA-IR: 4.90
[1]; serum
  ALT: 54.91 U/L
  AST: 62.32 U/L
  HDL-C: 1.30 mmol/L
  LDL-C: 1.29 mmol/L
  NEFA: 0.69 mmol/L
  TC: 1.76 mmol/L
  TG: 0.50 mmol/L
  UA: 106 µmol/L
[2]; week 1
  body weight: 192.12 ± 5.16
[2]; week 2
  body weight: 251.85 ± 11.78
[2]; week 3
  body weight: 316.12 ± 16.31
[2]; week 4
  body weight: 359.50 ± 15.40
[2]; week 5
  body weight: 389.95 ± 30.78
[2]; week 6
  body weight: 432.14 ± 23.79
[2]; week 7
  body weight: 462.23 ± 28.00
[2]; week 8
  body weight: 487.97 ± 30.51
[2]; week 9
  body weight: 487.63 ± 39.07
[2]; week 10
  body weight: 505.41 ± 41.23
[2]; week 11
  body weight: 493.66 ± 55.42
[2]; week 12
  body weight: 509.99 ± 49.38
[2]; week 13
  body weight: 532.39 ± 48.08
[2]; week 14
  body weight: 532.75 ± 52.06
[2]; week 15
  body weight: 498.86 ± 46.37
[2]; week 16
  body weight: 493.95 ± 43.25
[2]; week 17
  body weight: 515.43 ± 41.21
[2]; week 18
  body weight: 525.15 ± 42.35
[3]
  Liver Indices: 3.57 ± 0.31%
[4]; week 0 (pre-administration)
  body weight: 197.61 ± 4.50
[4]; week 1 (pre-administration)
  body weight: 257.27 ± 10.59
[4]; week 2 (pre-administration)
  body weight: 318.89 ± 11.61
[4]; week 3 (pre-administration)
  body weight: 362.58 ± 18.50
[4]; week 4 (pre-administration)
  body weight: 403.03 ± 23.75
[4]; week 5 (pre-administration)
  body weight: 439.43 ± 29.45
[4]; week 6 (pre-administration)
  body weight: 474.15 ± 35.23
[4]; week 7 (pre-administration)
  body weight: 492.08 ± 37.59
[4]; week 8 (pre-administration)
  body weight: 520.77 ± 41.63
[4]; week 9 (pre-administration)
  body weight: 548.10 ± 47.45
[4]; week 10 (pre-administration)
  body weight: 552.73 ± 51.34
[4]; week 11 (pre-administration)
  body weight: 552.52 ± 56.26
[4]; week 12 (pre-administration)
  body weight: 570.97 ± 53.36
[4]; week 13
  body weight: 552.25 ± 68.34
[4]; week 14
  body weight: 551.61 ± 63.47
[4]; week 15
  body weight: 559.94 ± 61.90
[4]; week 16
  body weight: 572.35 ± 60.86
[4]; week 17
  body weight: 573.51 ± 72.23
[4]; week 18
  body weight: 599.13 ± 55.71
[4]; week 19
  body weight: 615.97 ± 56.23
[4]; week 20
  body weight: 601.19 ± 60.01
[5]
  HA: 50.19 ± 17.94 µg/L
  IV-C: 15.40 ± 7.08 µg/L
  LN: 118.43 ± 39.88 µg/L
  PC-III: 10.82 ± 1.64 µg/L
[6]
  Liver Indices: 2.95 ± 0.68 %

## CC[C@H](C)C(=O)O[C@H]1C[C@@H](C)C=C2C=C[C@H](C)[C@H](CC[C@@H]3C[C@@H](O)CC(=O)O3)[C@H]21 [Lovastatin]
[1]
  HOMA-IR: 5.50
[1]; serum
  ALT: 43.66 U/L
  AST: 69.18 U/L
  HDL-C: 1.31 mmol/L
  LDL-C: 1.20 mmol/L
  NEFA: 0.76 mmol/L
[2]; week 1
  body weight: 195.70 ± 6.24
[2]; week 2
  body weight: 253.01 ± 9.37
[2]; week 3
  body weight: 315.37 ± 15.71
[2]; week 4
  body weight: 368.78 ± 19.25
[2]; week 5
  body weight: 409.85 ± 24.64
[2]; week 6
  body weight: 439.81 ± 28.73
[2]; week 7
  body weight: 470.75 ± 34.51
[2]; week 8
  body weight: 491.21 ± 35.35
[2]; week 9
  body weight: 491.46 ± 34.37
[2]; week 10
  body weight: 503.05 ± 37.51
[2]; week 11
  body weight: 486.62 ± 44.00
[2]; week 12
  body weight: 506.22 ± 46.50
[2]; week 13
  body weight: 530.00 ± 54.43
[2]; week 14
  body weight: 531.16 ± 48.26
[2]; week 15
  body weight: 525.60 ± 53.49
[2]; week 16
  body weight: 539.63 ± 46.78
[2]; week 17
  body weight: 555.78 ± 49.24
[2]; week 18
  body weight: 561.12 ± 51.49
[7]
  Oil red O staining of liver tissue (in words): significantly ameliorated steatosis severity and reduced lipid droplet content
[3]
  Liver Indices: 3.56 ± 0.49%
[4]; week 0 (pre-administration)
  body weight: 196.21 ± 4.57
[4]; week 1 (pre-administration)
  body weight: 258.64 ± 9.56
[4]; week 2 (pre-administration)
  body weight: 315.91 ± 19.58
[4]; week 3 (pre-administration)
  body weight: 356.16 ± 26.94
[4]; week 4 (pre-administration)
  body weight: 392.60 ± 32.93
[4]; week 5 (pre-administration)
  body weight: 432.81 ± 38.14
[4]; week 6 (pre-administration)
  body weight: 464.35 ± 45.01
[4]; week 7 (pre-administration)
  body weight: 482.88 ± 44.36
[4]; week 8 (pre-administration)
  body weight: 503.37 ± 45.95
[4]; week 9 (pre-administration)
  body weight: 530.26 ± 48.68
[4]; week 10 (pre-administration)
  body weight: 548.47 ± 45.65
[4]; week 11 (pre-administration)
  body weight: 547.23 ± 54.49
[4]; week 12 (pre-administration)
  body weight: 543.06 ± 66.86
[4]; week 13
  body weight: 534.63 ± 62.63
[4]; week 14
  body weight: 542.19 ± 52.03
[4]; week 15
  body weight: 543.36 ± 47.44
[4]; week 16
  body weight: 547.25 ± 37.26
[4]; week 17
  body weight: 561.64 ± 53.62
[4]; week 18
  body weight: 593.39 ± 48.55
[4]; week 19
  body weight: 615.74 ± 52.23
[4]; week 20
  body weight: 600.22 ± 50.84
[5]
  IV-C: 15.59 ± 7.47 µg/L
  PC-III: 10.52 ± 2.34 µg/L
[6]; NR218 at high, medium and low doses, P<0.01 or P<0.05
  liver indices versus model group (in words): significant decrease compared to the model group
[6]
  Liver Indices: 3.23 ± 0.56 %

— patent publication US20250302795A1, “SMALL MOLECULE COMPOUNDS WITH NEGATIVE REGULATORY EFFECTS ON Nrf2 SIGNALING [sequence] AND THEIR POTENTIAL APPLICATIONS” (Beijing Hebabiz Biotechnology Co., Inc., priority 2022, published 2025)
